The source of these data is patent US9724351B2, “Compounds for the treatment of paramoxyvirus viral infections” (priority 2012, dated 2017).

Data set [1] is described as follows: Cytotoxicity Determination. The data set is classed as cell-based. Conditions: human, HEp-2 cells, without addition of virus, CCK-8 readout, bins (Table 4: greater than 100 μM; Table 5: equal to or less than 100 μM and greater than 10 μM), read-out: 50% cytotoxicity concentration (CC50). Put shortly: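 CC50 was derived from CCK-8 optical density after a 3-4 h reagent incubation. Before that, cells without virus had been treated for 5 days at 37 °C, 5% CO2 with compound at seven ½-step final concentrations from 100 μM, in duplicate wells.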

Data set [2] relates to Respiratory Syncytial Virus (RSV) long strain (ATCC#VR-26). In words: RSV Antiviral Assay (CPE reduction assay). Type of data set: cell-based. Conditions: human respiratory syncytial virus, 120 h; HEp-2 cells infected with RSV long strain, 5 days, CCK-8 readout; bins (Table 2: less than 1 μM; Table 3: equal to or higher than 1 μM and less than 50 μM); read-out: 50% effective concentration (EC50). Put shortly: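 Cytopathic-effect protection measured after 5 days at 37 °C, 5% CO2 via CCK-8 dehydrogenase readout at 450 nm (630 nm reference), EC50 regressed from mean O.D. Host HEp-2 cells received RSV long strain at 100 TCID50/well; compound 9-point ⅓ series starting 100 μM or 1 μM, 1% DMSO, duplicate wells.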

Regarding `COc1ccc(C(=O)NCC(=O)N/N=C/c2csc3c(F)cccc23)cc1OC` [Compound 490], the CC50 at 5 days in data set [1] is > 100 µM. The EC50 in data set [2] is < 1 µM.
Consider `COc1ccc(C(=O)NCC(=O)c2ccc(OC)c(-c3ccc4scnc4c3)n2)cc1OC` [Compound 1539], for which the CC50 at 5 days in data set [1] is > 100 µM. Moreover, the EC50 in data set [2] is 1 to 50 µM.
For the compound `COc1ccc(C(=O)NCC(=O)N/N=C/c2cccc3ccccc23)cc1OC` [Compound 402], in data set [1], the CC50 at 5 days was 10 to 100 µM. Further, the EC50 in data set [2] lay within 1 to 50 µM.
Consider `COc1cc(OC)c(C(=O)NCC(=O)N/N=C(\C)c2csc3ccccc23)cc1OC` [Compound 480], for which, in data set [1], the CC50 at 5 days was > 100 µM. Besides, the EC50 in data set [2] lay within 1 to 50 µM.
Turning to `COc1cc(C(=O)N[C@@H](CCO)C(=O)c2ccc(OC)c(-c3csc4c(F)cccc34)n2)ccc1OCCO` [Compound 1803], the CC50 at 5 days in data set [1] was 10 to 100 µM. In data set [2], the EC50 is < 1 µM.
In the case of `COc1cc(C(=O)NCC(=O)c2c[nH]c(-c3csc4c(F)cccc34)n2)ccc1OCCO` [Compound 1240], the CC50 at 5 days in data set [1] was > 100 µM. In addition, in data set [2], the EC50 is 1 to 50 µM.
With `CCC/C(=N\NC(=O)CNC(=O)c1ccc(OC)c(OC)c1)c1csc2ccccc12` [Compound 427], the CC50 at 5 days in data set [1] was > 100 µM. In data set [2], the EC50 is < 1 µM.
Take `COc1cc(C(=O)N[C@@H](CO)C(=O)c2ccc(OC)c(-c3csc4c(F)cccc34)n2)ccc1OCCO` [Compound 1830]: the CC50 at 5 days in data set [1] is > 100 µM. In addition, the EC50 in data set [2] is < 1 µM.
In the same order, the values of `CCCCCC/C(=N\NC(=O)CNC(=O)c1ccc(OC)c(OC)c1)c1csc2ccccc12` [Compound 453] are 10 to 100 µM and 1 to 50 µM.
In the case of `CCN(CC)c1cc(C(=O)NCC(=O)N/N=C(\C)c2csc3ccccc23)cs1` [Compound 511], the CC50 at 5 days in data set [1] was 10 to 100 µM. Besides, the EC50 in data set [2] was 1 to 50 µM.
Regarding `COc1ccc(C(=O)NCC(=O)N/N=C(\CC#N)c2csc3ccccc23)cc1OC` [Compound 456], the CC50 at 5 days in data set [1] was > 100 µM. Moreover, the EC50 in data set [2] was in the range of 1 to 50 µM.
With `CCN(CC)c1ccc(C(=O)NCC(=O)N/N=C/c2csc3ccccc23)cc1` [Compound 235], the CC50 at 5 days in data set [1] is > 100 µM. The EC50 in data set [2] was in the range of 1 to 50 µM.
Turning to `COc1cc(C(=O)NCC(=O)N/N=C(\C)c2csc3ccccc23)ccc1O` [Compound 478], in data set [1], the CC50 at 5 days lay within 10 to 100 µM. The EC50 in data set [2] fell in the range of 1 to 50 µM.
In the same order, the values of `CCOc1ccc(C(=O)NCC(=O)N/N=C2\CN(CC)Cc3sc4c(F)cccc4c32)cc1OC` [Compound 464] are > 100 µM and < 1 µM.
`COCC/C(=N\NC(=O)CNC(=O)c1ccc(OC)c(OC)c1O)c1csc2c(F)cccc12` [Compound 300]: in data set [1], the CC50 at 5 days was in the range of 10 to 100 µM. In addition, in data set [2], the EC50 was < 1 µM.
Take `COc1ccc(C(=O)NCC(=O)N/N=C2\CCCc3sc4ccccc4c32)cc1OC` [Compound 446]: the CC50 at 5 days in data set [1] is > 100 µM. The EC50 in data set [2] is < 1 µM.
In the same order, the values of `COc1ccc(C(=O)NCC(=O)c2nc(-c3csc4c(F)cccc34)cn2CC(C)C)cc1OC` [Compound 1356] are > 100 µM and 1 to 50 µM.
Regarding `COc1ccc(C(=O)N2CCCCC2C(=O)c2ccc(OC)c(-c3csc4c(F)cccc34)n2)cc1OC` (stereo not drawn) [Compound 1800], in data set [1], the CC50 at 5 days lay in the range of 10 to 100 µM. In addition, in data set [2], the EC50 lay within 1 to 50 µM.
In the same order, the values of `COc1ccc(C(=O)NCC(=O)c2ccc3ccccc3n2)cc1OC` [Compound 1701] are > 100 µM and 1 to 50 µM.
Take `CNC(=O)c1ccc(-c2nc(C(=O)CNC(=O)c3ccc(OC)c(OC)c3)ccc2OC)cc1` [Compound 1504]: in data set [1], the CC50 at 5 days is > 100 µM. Moreover, the EC50 in data set [2] fell in the range of 1 to 50 µM.
Consider `COc1ccc(C(=O)NCC(=O)N2CCC(c3csc4c(F)cccc34)=N2)cc1OC` [Compound 1100], for which the CC50 at 5 days in data set [1] is 10 to 100 µM. In addition, the EC50 in data set [2] is 1 to 50 µM.
On to `CCOc1ccc(C(=O)NCC(=O)N/N=C/c2csc3ccccc23)cc1OCC` [Compound 231], for which the CC50 at 5 days in data set [1] was in the range of 10 to 100 µM. For the same compound, the EC50 in data set [2] was 1 to 50 µM.
For `C/C=C\c1cc(C(=O)CNC(=O)c2ccc(OC)c(OC)c2)nc(-c2csc3c(F)cccc23)c1` [Compound 1243] the same measures were > 100 µM and 1 to 50 µM.
For `COc1ccc(C(=O)NCC(=O)c2ccc(OC)c(-c3cccc(F)c3)n2)cc1OC` [Compound 1527] the same measures were > 100 µM and 1 to 50 µM.
Take `COc1cc(OCCC(=O)N(C)/N=C/c2csc3c(F)cccc23)ccc1OCCO` [Compound 2306]: the CC50 at 5 days in data set [1] is > 100 µM. For the same compound, the EC50 in data set [2] lay in the range of 1 to 50 µM.
As for `CCOC(=O)c1c[nH]c2c(/C=N/NC(=O)CNC(=O)c3ccc(OC)c(OC)c3)csc2c1=O` [Compound 498], the CC50 at 5 days in data set [1] is > 100 µM. Besides, the EC50 in data set [2] was 1 to 50 µM.
Turning to `CCOc1ccc(C(=O)NCC(=O)N/N=C(/CCOC)c2csc3c(F)cccc23)cc1OC` [Compound 463B], in data set [1], the CC50 at 5 days is > 100 µM. In addition, the EC50 in data set [2] was < 1 µM.
For `CCOc1cc(-c2nc(C(=O)CNC(=O)c3ccc(OC)c(OC)c3)ccc2OC)cc2ccccc12` [Compound 1509] the same measures were > 100 µM and 1 to 50 µM.
For `COc1cc(C(=O)NCC(=O)N/N=C(\C)c2csc3ccccc23)ccc1OCC1CC1` [Compound 510], the CC50 at 5 days in data set [1] was in the range of 10 to 100 µM. Besides, in data set [2], the EC50 was < 1 µM.
On to `COc1cc(C(=O)NCC(=O)c2ccc(OC)c(-c3ccc(F)c(Cl)c3)n2)ccc1OCC(C)(C)O` [Compound 1319], for which, in data set [1], the CC50 at 5 days is > 100 µM. In data set [2], the EC50 was < 1 µM.
For `COc1ccc(C(=O)NCC(=O)c2ncc(-c3csc4c(F)cccc34)[nH]2)cc1OC` [Compound 1352], the CC50 at 5 days in data set [1] was in the range of 10 to 100 µM. Besides, the EC50 in data set [2] is 1 to 50 µM.
Consider `COc1ccc(C(=O)NCC(=O)c2nc(-c3csc4c(F)cccc34)cs2)cc1OC` [Compound 1206], for which the CC50 at 5 days in data set [1] was 10 to 100 µM. Besides, the EC50 in data set [2] lay within 1 to 50 µM.
For `COc1cc(C(=O)NCC(=O)N2CCN(c3ccc(F)c(Cl)c3)C2=O)ccc1OCCO` [Compound 3900], in data set [1], the CC50 at 5 days was > 100 µM. Also, the EC50 in data set [2] was in the range of 1 to 50 µM.
As for `COc1ccc(C(=O)NCC(=O)c2ccc(OC)c(-c3ccc(C(F)(F)F)cc3)n2)cc1OC` [Compound 1531], the CC50 at 5 days in data set [1] was > 100 µM. For the same compound, the EC50 in data set [2] is < 1 µM.
For the compound `COc1ccc(C(=O)NCC(=O)N/N=C(\C)c2csc3ccc(F)cc23)cc1OC` [Compound 422], in data set [1], the CC50 at 5 days is 10 to 100 µM. The EC50 in data set [2] lay within 1 to 50 µM.
As to `COc1cc(C(=O)NCC(=O)c2ccc(OC)c(-c3coc4c(F)cccc34)n2)ccc1OCCO` [Compound 1343], the CC50 at 5 days in data set [1] is > 100 µM. For the same compound, the EC50 in data set [2] is < 1 µM.
`COc1ccc(C(=O)NCC(=O)c2cc(C)cc(-c3csc4c(F)cccc34)n2)cc1OC` [Compound 1211]: the CC50 at 5 days in data set [1] is > 100 µM. The EC50 in data set [2] is < 1 µM.
Turning to `COc1cc(C(=O)NCC(=O)N(C)C(=O)Nc2csc3c(F)cccc23)ccc1OCCO` [Compound 2802], the CC50 at 5 days in data set [1] was > 100 µM. Moreover, in data set [2], the EC50 is 1 to 50 µM.
Regarding `COCC/C(=N\NC(=O)CNC(=O)c1ccc(OC2COC2)c(OC)c1)c1csc2c(F)cccc12` [Compound 514A], the CC50 at 5 days in data set [1] is > 100 µM. Besides, in data set [2], the EC50 is < 1 µM.
In the case of `COc1cc(C(=O)NCC(=O)c2cccc(-c3csc4c(F)cccc34)n2)ccc1OCc1nc[nH]n1` [Compound 1242], the CC50 at 5 days in data set [1] is 10 to 100 µM. Also, the EC50 in data set [2] was 1 to 50 µM.
As to `COc1ccc(C(=O)NCC(=O)c2ccc(OC)c(-c3ccc4cn(C)nc4c3)n2)cc1OC` [Compound 1538], the CC50 at 5 days in data set [1] is > 100 µM. Also, in data set [2], the EC50 fell in the range of 1 to 50 µM.
Turning to `COCC/C(=N/NC(=O)CNC(=O)c1ccc(OC)c(OC)c1O)c1csc2c(F)cccc12` [Compound 400-21], in data set [1], the CC50 at 5 days was > 100 µM. Besides, in data set [2], the EC50 is 1 to 50 µM.
In the case of `COc1ccc(C(=O)N(C)NC(=O)c2cccc(-c3csc4c(F)cccc34)n2)cc1OC` [Compound 3101], in data set [1], the CC50 at 5 days lay in the range of 10 to 100 µM. Moreover, in data set [2], the EC50 fell in the range of 1 to 50 µM.
Regarding `COc1ccc(C(=O)NCC(=O)N/N=C2\CCCc3[nH]c4ccccc4c32)cc1OC` [Compound 414], the CC50 at 5 days in data set [1] lay within 10 to 100 µM. Further, in data set [2], the EC50 was in the range of 1 to 50 µM.
In the same order, the values of `CCOc1ccc(C(=O)NCC(=O)N/N=C(\C)c2csc3cnccc23)cc1OC` [Compound 466] are > 100 µM and 1 to 50 µM.
In the same order, the values of `COc1ccc(C(=O)N(C)N(C)C(=O)c2cccc(-c3csc4c(F)cccc34)n2)cc1OC` [Compound 3103] are 10 to 100 µM and 1 to 50 µM.
Regarding `CCCC/C(=N/NC(=O)CNC(=O)c1ccc(OCC)c(OC)c1)c1csc2c(F)cccc12` [Compound 462B], the CC50 at 5 days in data set [1] lay within 10 to 100 µM. Also, the EC50 in data set [2] is < 1 µM.
Take `CCCC/C(=N\NC(=O)CNC(=O)c1ccc(OC)c(OCC)c1)c1csc2ccccc12` [Compound 246A]: in data set [1], the CC50 at 5 days was 10 to 100 µM. Also, in data set [2], the EC50 is < 1 µM.
In the case of `COc1ccc(C(=O)CNC(=O)c2ccc(OCCO)c(C)c2)nc1-c1ccc(F)c(Cl)c1` [Compound 1309], the CC50 at 5 days in data set [1] was > 100 µM. Besides, the EC50 in data set [2] is < 1 µM.
Regarding `CCOc1ccc(C(=O)NCC(=O)N/N=C/c2c[nH]c3c(F)cccc23)cc1OC` [Compound 400-27], the CC50 at 5 days in data set [1] is > 100 µM. Besides, in data set [2], the EC50 was 1 to 50 µM.
On to `CCCCC/C(=N\NC(=O)CNC(=O)c1ccc(OC)c(OC)c1)c1csc2ccccc12` [Compound 448A], for which the CC50 at 5 days in data set [1] fell in the range of 10 to 100 µM. In data set [2], the EC50 lay in the range of 1 to 50 µM.
